Source: US9233965B2, “3,4-dihydropyrrolo[1,2-A]pyrazine-2,8(1H)-dicarboxamide derivatives, preparation thereof and therapeutic use thereof for diseases involving casein kinase 1 epsilon and/or casein kinase 1 delta” (SANOFI, priority 2010, dated 2016)
pIC50: −log10 of the molar value. Several values for one entry are separate records, joined by “and”; a condition that tells them apart may be missing. Equal entries are not always repeated.

How the values were obtained:
[1] = target: casein kinase 1 epsilon (CK1 epsilon) (Homo sapiens (Human), UniProt P49674); assay: Test A: inhibitory activity on CK1 epsilon, casein phosphorylation assay on ATP-33P filter plate; format: biochemical; conditions: IC50 values or IC50 ranges (result of several experiments), ATP 10 μM final
Chain of casein kinase 1 epsilon (CK1 epsilon) (P49674 whole entry): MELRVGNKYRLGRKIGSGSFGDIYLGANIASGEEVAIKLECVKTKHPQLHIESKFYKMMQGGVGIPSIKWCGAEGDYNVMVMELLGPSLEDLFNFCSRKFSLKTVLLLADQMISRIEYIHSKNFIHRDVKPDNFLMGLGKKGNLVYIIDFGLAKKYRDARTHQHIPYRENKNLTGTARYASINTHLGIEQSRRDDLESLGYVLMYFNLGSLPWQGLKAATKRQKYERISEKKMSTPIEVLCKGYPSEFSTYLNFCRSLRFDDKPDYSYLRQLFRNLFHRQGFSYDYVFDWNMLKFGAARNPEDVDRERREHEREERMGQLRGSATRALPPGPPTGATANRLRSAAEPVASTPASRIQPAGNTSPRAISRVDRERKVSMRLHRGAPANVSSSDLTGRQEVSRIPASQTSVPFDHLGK
Summary of the method: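 Human CK1 epsilon (3 ng/μL final) phosphorylates dephosphorylated casein (0.2 μg/μL) with ATP-33P plus 10 μM cold ATP (KM for ATP 21 μM), 2 h at room temperature, pH 7.5 Tris buffer. TCA-precipitated protein counted by scintillation; compounds at 10 to 0.001 μM give IC50 values or % inhibition at 10 μM.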

[2] = test system: Mper1-luc Rat-1 (P2C4) fibroblasts; assay: Test C: circadian cell assay, mPer1-luciferase reporter period analysis; format: cell-based; conditions: effective concentration that induces a 1-hour prolongation of the circadian period; values or ranges from several experiments
Experimental: Test C: Experimental Protocol for Circadian Cell Assay
Mper1-luc Rat-1 (P2C4) fibroblast cultures were prepared by dividing the cultures every 3-4 days (about 10-20% of confluence) on 150 cm^2 degassed polystyrene tissue culture flasks (Falcon® #35-5001) and maintained in growth medium [EMEM (Cellgro #10-010-CV); 10% foetal bovine serum (FBS; Gibco #16000-044); and 50 I.U./mL of penicillin-streptomycin (Cellgro #30-001-Cl)] at 37° C. and under 5% CO2.
Cells obtained from Rat-1 fibroblast cultures at 30-50% of confluence as described above were co-transfected with vectors containing the selection marker for resistance to zeocin for a stable transfection and a luciferase reporter gene directed by the promoter mPer-1. After 24 to 48 hours, the cultures were divided on 96-well plates and maintained in growth medium supplemented with 50-100 μg/mL of zeocin (Invitrogen® #45-0430) for 10-14 days. The zeocin-resistant stable transfectants were evaluated for expression of the reporter by adding to the growth medium luciferin 100 μM (Promega® #E1603®) and by assaying the luciferase activity on a TopCount® scintillation counter (Packard model #C384V00). The Rat-1 cell clones expressing both zeocin resistance and luciferase activity directed by mPer1 were serum-shock-synchronized with 50% horse serum [HS (Gibco® #16050-122)] and the activity of the circadian reporter was evaluated. The P2C4 clone of fibroblasts Mper1-luc Rat-1 was selected to test the compound.
The Mper1-luc Rat-1 (P2C4) fibroblasts at 40-50% of confluence obtained according to the protocol described above were plated out onto 96-well opaque tissue culture plates (Perkin Elmer® #6005680). The cultures are maintained in growth medium supplemented with 100 μg/mL of zeocin (Invitrogen #45-0430) until they reached 100% of confluence (48-72 hours). The cultures were then synchronized with 100 μL of synchronization medium [EMEM (Cellgro #10-010-CV); 100 I.U./mL of penicillin-streptomycin (Cellgro #30-001-C1); 50% HS (Gibco #16050-122)] for 2 hours at 37° C. and under 5% CO2. After synchronization, the cultures were rinsed with 100 μL of EMEM (Cellgro #10-010-CV) for 10 minutes at room temperature. […]
The period analysis was performed either by determining the interval between the relative light emission minima over several days or by Fourier transform. […] The data were analysed by adjusting a hyperbolic curve to the data expressed as change of period (y-axis) as a function of the concentration of the test compound (x-axis) in the XLfit™ software and the EC Delta (t+1 h) was interpolated from this curve. […]

human CK1 delta = human CK1 delta (Homo sapiens (Human), UniProt P48730); assay: Test B: inhibitory activity on CK1 delta measured by FRET (Z'Lyte kinase assay kit); format: biochemical; conditions: substrate peptide SER/THR 11 2 μM, ATP 4 times the KM
Chain of human CK1 delta (P48730 whole entry): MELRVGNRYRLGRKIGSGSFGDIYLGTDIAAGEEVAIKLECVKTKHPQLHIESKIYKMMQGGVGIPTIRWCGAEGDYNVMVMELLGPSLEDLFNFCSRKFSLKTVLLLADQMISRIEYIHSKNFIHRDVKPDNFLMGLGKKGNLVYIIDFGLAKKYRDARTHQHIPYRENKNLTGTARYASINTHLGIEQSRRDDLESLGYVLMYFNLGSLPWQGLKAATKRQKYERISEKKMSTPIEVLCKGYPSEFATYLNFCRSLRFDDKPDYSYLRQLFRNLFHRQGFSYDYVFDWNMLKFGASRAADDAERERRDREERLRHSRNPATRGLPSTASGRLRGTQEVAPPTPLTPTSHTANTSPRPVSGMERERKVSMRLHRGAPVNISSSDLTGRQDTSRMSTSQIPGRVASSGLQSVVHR
Description: Test B: Inhibitory Activity on CK1 Delta Measured by FRET
The capacity of the compounds of the invention to inhibit the phosphorylation of casein by the casein kinases 1 epsilon and delta may be evaluated using an FRET (Fluorescence Resonance Energy Transfer) fluorescence test with the aid of the “Z'Lyte™ kinase assay kit” (reference PV3670; Invitrogen Corporation™) according to the manufacturer's instructions.
The casein kinases 1 used are obtained from Invitrogen Corporation (human CK1 epsilon PV3500 and human CK1 delta PV3665).
A peptide substrate labelled at both ends with a fluorophore-donating group (coumarin) and a fluorophore-accepting group (fluorescein) constituting an FRET system is […] in the presence of ATP by casein kinase 1 epsilon or delta in the presence of increasing concentrations of compounds of the invention.
The mixture is treated with a site-specific protease that specifically cleaves the substrate peptide to form two fluorescent fragments having a large fluorescence emission ratio.
The fluorescence observed is thus related to the capacity of the products of the invention to inhibit the phosphorylation of the substrate peptide by casein kinase 1 epsilon or casein kinase 1 delta. […]
The emitted fluorescence is measured at wavelengths of 445 and 520 nm (excitation at 400 nm). […]

Row | SMILES | pIC50 [1] | melting point | pIC50 (human CK1 delta) | CE Delta (t + 1 h) [2] [nM]
1 | Cc1c(-c2ccccc2)c(C(N)=O)c2n1CCN(C(=O)NC(C)(C)C)C2 [Compound 3, N^2-tert-butyl-6-methyl-7-phenyl-3,4-dihydropyrrolo[1,2-a]pyrazine-2,8(1H)-dicarboxamide] | 6.98 to 8.30 | – | – | 8
2 | CC(C)(C)NC(=O)N1CCn2c(c(C(N)=O)c(-c3ccc4ccccc4c3)c2C2CC2)C1 [Compound 25, N^2-tert-butyl-6-cyclo-propyl-7-(naphthalen-2-yl)-3,4-dihydropyrrolo[1,2-a]pyrazine-2,8(1H)-dicarboxamide] | 7.48 | – | – | 26
3 | CC(C)(C)NC(=O)N1CCn2c(c(C(N)=O)c(-c3ccccc3)c2C2CC2)C1 [Compound 10, N^2-tert-butyl-6-cyclo-propyl-7-phenyl-3,4-dihydropyrrolo[1,2-a]pyrazine-2,8(1H)-dicarboxamide] | 7.11 to 7.82 | – | 7.51 | –

Now from value to molecule, other results behind:

Row | pIC50 [1] | melting point | pIC50 (human CK1 delta) | SMILES | CE Delta (t + 1 h) [2] [nM]
4 | 8.22 | – | – | NC(=O)c1c(-c2ccccc2)c(C2CC2)n2c1CN(C(=O)NC13CC4CC(CC(C4)C1)C3)CC2 [Compound 54, N^2-(adamantan-1-yl)-6-cyclo-propyl-7-phenyl-3,4-dihydropyrrolo[1,2-a]pyrazine-2,8(1H)-dicarboxamide] | 15
5 | 7.92 to 9.00 | 197 to 199 °C and 192 to 195 °C | – | CC(C)(C)NC(=O)N1CCn2c(Cl)c(-c3ccccc3)c(C(N)=O)c2C1 [Compound 60, N^2-tert-butyl-6-chloro-7-phenyl-3,4-dihydropyrrolo[1,2-a]pyrazine-2,8(1H)-dicarboxamide] | 3 to 20
